Data: article PMC6200358 (Science Advances, 2018)

How the values were obtained:
human CB1R = human CB1R (Homo sapiens, UniProt P21554); experiment: [35S]GTPγS binding assay, CHO-hCB1 membranes; type: biochemical
human CB2R = human CB2R (Homo sapiens, UniProt P34972); experiment: [35S]GTPγS binding assay, CHO-hCB2 membranes; type: biochemical
BALB/c mice = experiment: Tetrad test; type: in vivo, mouse; conditions: pretreatment at 5 mg/kg

Chain of human CB1R (P21554 whole entry): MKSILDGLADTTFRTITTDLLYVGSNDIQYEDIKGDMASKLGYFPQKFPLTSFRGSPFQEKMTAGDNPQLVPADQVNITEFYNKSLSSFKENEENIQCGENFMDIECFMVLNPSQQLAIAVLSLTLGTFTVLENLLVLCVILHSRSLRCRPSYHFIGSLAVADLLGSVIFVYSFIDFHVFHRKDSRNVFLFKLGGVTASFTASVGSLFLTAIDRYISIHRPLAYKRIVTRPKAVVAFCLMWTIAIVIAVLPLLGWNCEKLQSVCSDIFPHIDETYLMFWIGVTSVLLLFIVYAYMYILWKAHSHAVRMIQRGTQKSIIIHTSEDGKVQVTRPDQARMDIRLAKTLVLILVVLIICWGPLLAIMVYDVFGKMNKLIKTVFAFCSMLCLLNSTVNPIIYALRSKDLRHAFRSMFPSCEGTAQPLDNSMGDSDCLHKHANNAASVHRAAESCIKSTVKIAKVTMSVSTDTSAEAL
Chain of human CB2R (P34972 whole entry): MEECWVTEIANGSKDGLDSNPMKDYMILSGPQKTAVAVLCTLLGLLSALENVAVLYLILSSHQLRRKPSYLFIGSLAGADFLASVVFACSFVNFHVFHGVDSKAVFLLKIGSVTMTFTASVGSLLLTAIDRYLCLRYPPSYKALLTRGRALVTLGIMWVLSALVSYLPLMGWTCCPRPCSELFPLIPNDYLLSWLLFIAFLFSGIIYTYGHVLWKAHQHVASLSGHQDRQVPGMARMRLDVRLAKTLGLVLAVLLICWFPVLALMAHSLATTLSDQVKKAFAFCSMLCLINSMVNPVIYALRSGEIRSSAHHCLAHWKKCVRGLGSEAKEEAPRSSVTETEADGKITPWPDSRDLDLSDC

Row | SMILES | CB1R agonist type (full or partial agonist) (human CB1R; [35S]GTPγS binding) | Emax (human CB1R; read-out: Receptor activation CB1R (Emax)) [%] | CB2R agonist type (full or partial agonist) (human CB2R; [35S]GTPγS binding) | Emax (human CB2R; read-out: Receptor activation CB2R (Emax)) [%] | Blockade of the tetrad effects of PET and THC diastereoisomers (BALB/c mice)
1 | CCCCCCC(C)(C)c1ccc([C@@H]2C[C@H](O)CC[C@H]2CCCO)c(O)c1 [CP55,940] | full | 173 ± 6 | full | 194 ± 5 | –
2 | Cc1c(C(=O)NN2CCCCC2)nn(-c2ccc(Cl)cc2Cl)c1-c1ccc(Cl)cc1 [rimonabant, Rimonabant] | – | – | – | – | fully abolished
